# Test system: Angptl4 mRNA expression in 3T3-L1 cells
# Experiment: Angptl4 mRNA expression (RT-qPCR) in 3T3-L1 cells
# Assay type: cell-based, murine
# Details: antagonist 0, 0.1, 1 and 10 μM, against GW7647, GW501516 or rosiglitazone respectively
# Experimental: To study the effect of CpFAs on the regulation of Angptl4 expression, Angptl4 mRNA expression levels were quantified by real-time qPCR in cultured murine 3T3-L1 cells. […] FIG. 7A-C show a dose-dependent response to representative CpFAs in murine 3T3-L1 cells.
# 3T3-L1 cell culture and PPAR activation: 3T3-LI preadipocytes were cultured in growth medium (high glucose Dulbecco's Modified Eagle Medium (DMEM) containing 10% calf serum (CS), 1× Pencillin/Streptomycin, and 1× Glutamax) and seeded in multi-well (12-or 24-well) plates. PPAR specificity of gene target activation was determined in 3T3-L1 preadipocytes using well-described agonists and antagonists for PPAR-α, PPAR-δ, or PPAR-γ. On the day of treatment, preadipocytes were serum starved in 0.25% CS in growth medium for 2-4 hours. Cells were pretreated with increasing concentrations (0, 0.1, 1 and 10 μM) of PPAR antagonists (GW6471 for PPAR-α, GSK3787 for PPARδ, and T0070907 for PPARγ) in serum starve medium. After 1 hour, selective PPAR agonists were added (GW7647 (PPAR-α), GW501516 (PPAR-δ), and rosiglitazone (PPAR-γ)) and incubated for 24 hours. Lysates were collected for RNA extraction. […] CpFA treatments (final concentrations of 37.5, 75, and 150 μM) were prepared in 0.25% serum starve media plus 3% BSA, followed by heating (55° C.) and sonicating for 30 minutes. Treatments were allowed to cool to 37° C. and then added to 3T3-L1 preadipocytes and incubated for 24 hours. Lysates for RNA isolation were collected.
# Angptl4 expression analyses: RNA was isolated from cell lysates using Qiagen 96 Total RNA kit. cDNA was synthesized and plated in triplicates in 384-well plates. RT-qPCR was performed using TaqMan Fast-Advanced master mix and TaqMan reagents and primers (18S, rplp0, angplt4) and analyzed using a Thermo Fisher Scientific QuantStudio 6 Flex PCR system. Relative gene expression was analyzed using the fold difference algorithm (2∧(−ΔΔCt)) using the geomean of 2 housekeeping genes (18S, RPLPO) compared to relevant vehicle control.
row,SMILES,reversal of synthetic PPAR agonist activity on Angptl4 mRNA expression
1,O=C(NCCS(=O)(=O)c1ccc(C(F)(F)F)cn1)c1ccc(Cl)cc1 [GSK3787],concentration-dependent ability
2,CCC(=O)NC[C@H](Cc1ccc(OCCc2nc(-c3ccccc3)oc2C)cc1)N/C(C)=C\C(=O)c1ccc(C(F)(F)F)cc1 [GW6471],concentration-dependent ability
3,O=C(Nc1ccncc1)c1cc([N+](=O)[O-])ccc1Cl [T0070907],concentration-dependent ability

# Source: patent US20260027078A1, “Cyclopropane Fatty Acid Modulators Of Peroxisome Proliferator-Activated Receptors” (The Regents of the University of California, priority 2022, published 2026)
